Assay [1] concerns NCI-H1975. Kind of assay: cells. The class given is functional, cell-based. Conditions: Homo sapiens, NCI-H1975, 72 h; call rule not given here.
Assay [2] can be described thus: Antiproliferative activity against gefitinib-sensitive human HCC827 cells harboring EGFR E746 to A750 deletion after 72 hrs by MTS assay. The class given is functional, cell-based. The settings on record: HCC827, 72 h. (Tetrazolium dyes change colour on reduction, which living cells bring about.)
Assay [3] has as its target Epidermal growth factor receptor (Homo sapiens, UniProt P00533, L858R/T790M). Kind of assay: (§1) Inhibition of EGFR T790M/L858R double mutant (unknown origin) using Tyr 4 peptide as substrate after 1.5 hrs by FRET-based Z'-LYTE assay. The class given is protein assay.
For assay [4], the target named is Epidermal growth factor receptor (Homo sapiens, UniProt P00533, L858R). As to the kind of experiment: Inhibition of EGFR L858R mutant (unknown origin) using Tyr 4 peptide as substrate after 1.5 hrs by FRET-based Z'-LYTE assay. Format: protein assay. Conditions: for pIC50: read-out: IC50.
The target of assay [5] is Epidermal growth factor receptor (Homo sapiens, UniProt P00533). As to the kind of experiment: Inhibition of wild type EGFR (unknown origin) using Tyr 4 peptide as substrate after 1.5 hrs by FRET-based Z'-LYTE assay. The settings on record: for pIC50: read-out: IC50.
The target of assay [6] is Epidermal growth factor receptor (Homo sapiens, UniProt P00533, T790M/L858R). The description is as §1. The class given is protein assay.

For orientation: pIC50 means the IC50 on a negative log10 scale, so that one unit is a factor of ten.

pIC50: −log10 of the molar value.

For `C=CC(=O)Nc1cccc(-n2c(=O)cnc3cnc(Nc4ccc(N5CCCC5)cc4)nc32)c1`, the pIC50 is 6.24 in assay [1]; 7.15 in assay [2]; 8.30 in assay [3]; 7.89 in assay [4]; 7.82 in assay [5].

`C=CC(=O)Nc1ccc(-n2c(=O)cnc3cnc(Nc4ccc(OC)cc4)nc32)cc1`: the negative-log IC50 (pIC50) was 5.66 in assay [1]; 5.77 in assay [2]; 5.32 in assay [3]; 4.62 in assay [4]; 5.29 in assay [5].

Consider `COc1ccc(Nc2ncc3ncc(=O)n(-c4cccc(NC(=O)/C=C/CN(C)C)c4)c3n2)cc1`, for which the pIC50 in assay [1] was 6.25; in assay [2] it was 6.04; in assay [3], 4.25; in assay [4], 4.48; in assay [5], 4.58.

For `COc1ccc(Nc2ncc3ncc(=O)n(-c4ccc(N)cc4)c3n2)cc1`, the pIC50 in assay [1] and in assay [2] was less than 5.00 each time. Also, the IC50 result in assay [6], in assay [4] and in assay [5] was “Not Active” in each case.

For `C=CC(=O)Nc1ccc(-n2c(=O)cnc3cnc(Nc4ccc(N5CCN(C)CC5)cc4OC)nc32)cc1`, the negative logarithm of the IC50 (pIC50) in assay [1] was 5.56; in assay [2], 6.30; in assay [3], 6.57; in assay [4], 6.30; in assay [5], 6.40.

Regarding `C=CC(=O)Nc1cccc(-n2c(=O)cnc3cnc(Nc4ccc(N(CC)CC)cc4)nc32)c1`, the pIC50 was 5.39 in assay [1]; 7.35 in assay [2]; 8.33 in assay [3]; 7.85 in assay [4]; 7.84 in assay [5].

As for `CCC(=O)Nc1ccc(-n2c(=O)cnc3cnc(Nc4ccc(OC)cc4)nc32)cc1`, the pIC50 in assay [1] and in assay [2] was less than 5.00 in each case. Besides, the IC50 entry in assay [6], in assay [4] and in assay [5] was “Not Active” in each case.

For the compound `C=CC(=O)Nc1cccc(-n2c(=O)cnc3cnc(Nc4ccc(NC(C)=O)cc4)nc32)c1`, the pIC50 is 5.39 in assay [1]; 6.41 in assay [2]; 8.34 in assay [3]; 7.85 in assay [4]; 7.90 in assay [5].

`CN(C)C/C=C/C(=O)Nc1ccc(-n2c(=O)cnc3cnc(Nc4ccccc4)nc32)cc1`: the pIC50 in assay [1] is less than 5.00; in assay [2], 5.30. Also, the IC50 result in assay [6], in assay [4] and in assay [5] was “Not Active” throughout.

For `C=CC(=O)Nc1cccc(Nc2ncc3ncc(=O)n(-c4ccc(OC)cc4)c3n2)c1`, the pIC50 is 5.63 in assay [1] and 5.91 in assay [2]. Moreover, the IC50 entry in assay [6], in assay [4] and in assay [5] was “Not Active” in each case.

As to `C=CC(=O)Nc1cccc(-n2c(=O)cnc3cnc(Nc4ccc(N5CCN(C)CC5)cc4)nc32)c1`, the pIC50 in assay [1] was 7.21; in assay [2], 8.40; in assay [3], 9.17; in assay [4] it was 8.88; in assay [5], 8.92.

In the case of `C=CC(=O)Nc1ccc(-n2c(=O)cnc3cnc(Nc4ccc(N5CCN(C)CC5)cc4)nc32)cc1`, the pIC50 is 5.21 in assay [1]; 5.63 in assay [2]; 6.16 in assay [3]; 5.82 in assay [4]; 5.96 in assay [5].

`C=CC(=O)Nc1cccc(-n2c(=O)cnc3cnc(Nc4ccc(C(N)=O)cc4)nc32)c1`: the pIC50 in assay [1] is 5.07; in assay [2], 6.29; in assay [3], 8.40; in assay [4], 7.93; in assay [5], 7.92.

For the compound `COc1ccc(-n2c(=O)cnc3cnc(Nc4ccc(N)cc4)nc32)cc1`, the pIC50 was less than 5.00 in assay [1], less than 5.00 in assay [2], 5.07 in assay [4] and 4.59 in assay [5].

Take `COc1ccc(Nc2ncc3ncc(=O)n(-c4cccc(N)c4)c3n2)cc1`: the pIC50 in assay [1] is less than 5.00; in assay [2], less than 5.00; in assay [3] it was 4.67; in assay [4], 4.25. The IC50 result in assay [5] is given as “Not Active”.

`C=CC(=O)Nc1ccc(-n2c(=O)cnc3cnc(Nc4ccc(N5CCOCC5)cc4)nc32)cc1`: the pIC50 in assay [1] was less than 5.00; in assay [2], 5.14; in assay [3], 5.46; in assay [4] it was 5.06; in assay [5], 5.25.

`C=CC(=O)Nc1cccc(-n2c(=O)cnc3cnc(Nc4ccc(OC)cc4)nc32)c1`: the pIC50 in assay [1] was 7.20; in assay [2], 8.02; in assay [3], 8.25; in assay [4] it was 7.83; in assay [5], 7.86.

For the compound `C=CC(=O)Nc1ccc(-n2c(=O)cnc3cnc(Nc4ccccc4)nc32)cc1`, the pIC50 in assay [1] and in assay [2] was less than 5.00 throughout. In addition, the IC50 result in assay [6], in assay [4] and in assay [5] was “Not Active” throughout.

On to `C=CC(=O)Nc1ccc(Nc2ncc3ncc(=O)n(-c4ccc(OC)cc4)c3n2)cc1`, for which the pIC50 is 5.88 in assay [1]; 5.84 in assay [2]; 4.15 in assay [3]; 4.15 in assay [4]; 4.47 in assay [5].

For `C=CC(=O)Oc1ccc(-n2c(=O)cnc3cnc(Nc4ccc(OC)cc4)nc32)cc1`, the pIC50 in assay [1] is 5.23; in assay [2], 5.07; in assay [3], 7.23; in assay [4] it was 6.91; in assay [5], 7.22.

For `C=CC(=O)Nc1ccc(-n2c(=O)c(C)nc3cnc(Nc4ccc(OC)cc4)nc32)cc1`, the pIC50 in assay [1] was less than 5.00; in assay [2], 5.56; in assay [3] it was 4.46; in assay [4] it was 5.14; in assay [5] it was 4.79.

Take `C=CC(=O)Nc1cccc(-n2c(=O)cnc3cnc(Nc4ccc(N5CCCCC5)cc4)nc32)c1`: the pIC50 in assay [1] was 6.53; in assay [2] it was 7.60; in assay [3] it was 8.29; in assay [4], 7.83; in assay [5], 7.80.

As to `CCC(=O)Nc1cccc(-n2c(=O)cnc3cnc(Nc4ccc(OC)cc4)nc32)c1`, the pIC50 in assay [1] and in assay [2] was less than 5.00 throughout. Besides, the IC50 entry in assay [6], in assay [4] and in assay [5] was “Not Active” throughout.

In the case of `C=CC(=O)Nc1cccc(-n2c(=O)cnc3cnc(Nc4ccc(Cl)cc4)nc32)c1`, the pIC50 in assay [1] is 5.65; in assay [2], 6.76; in assay [3] it was 7.75; in assay [4], 7.31; in assay [5] it was 7.33.

Turning to `COc1ccc(Nc2ncc3ncc(=O)n(-c4ccc(NC(=O)/C=C/CN(C)C)cc4)c3n2)cc1`, the pIC50 is less than 5.00 in assay [1]; 5.08 in assay [2]; 7.50 in assay [3]; 7.12 in assay [4]; 7.23 in assay [5].

As for `COc1ccc(-n2c(=O)cnc3cnc(Nc4cccc(N)c4)nc32)cc1`, the negative logarithm of the IC50 (pIC50) in assay [1] is less than 5.00; in assay [2], less than 5.00; in assay [3], 5.42; in assay [4], 5.09; in assay [5] it was 4.74.

`C=CC(=O)Nc1ccc(-n2c(=O)cnc3cnc(Nc4ccc(Cl)cc4)nc32)cc1`: the pIC50 in assay [1] was less than 5.00; in assay [2], less than 5.00; in assay [3] it was 6.84; in assay [4] it was 6.30; in assay [5], 6.43.

In the case of `C=CC(=O)Nc1cccc(-n2c(=O)cnc3cnc(Nc4ccc(N5CCOCC5)cc4)nc32)c1`, the pIC50 is 6.59 in assay [1]; 7.82 in assay [2]; 8.54 in assay [3]; 8.14 in assay [4]; 8.16 in assay [5].

For the origin of these results see ChEMBL document CHEMBL2434822, “Discovery of pteridin-7(8H)-one-based irreversible inhibitors targeting the epidermal growth factor receptor (EGFR) kinase T790M/L858R mutant” (J Med Chem, 2013).
